Measured values as given in the supplement of paper PMC8671470.

Columns and labels:
Details in all cases: 72 h
Mono-Mac-6 [1] = assay: cell viability (% survival relative to DMSO control, bortezomib = 0%); higher = less cytotoxic
Outline: (§1)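 Percent survival is reported as the mean of duplicate wells. Cells from 10 AML and 5 CML lines were plated in 384-well plates containing compounds at 1, 10, 100, 1000 or 10000 nM and kept for 72 h at 37 °C in 5% CO2. Readout used CellTiter-Glo luminescence, scaled so that vehicle equals 100% and a 10 µM positive control equals 0%.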

NOMO-1 [2] = assay: as above
Outline: as §1

THP-1 [3] = assay: as above
Outline: as §1

ML-2 [4] = assay: as above
Outline: as §1

KCL-22 [5] = assay: as above
Outline: as §1

BV-173 [6] = assay: as above
Outline: as §1

HEL [7] = assay: as above
Outline: as §1

KU-812 [8] = assay: as above
Outline: as §1

K-562 [9] = assay: as above
Outline: as §1

KG-1 [10] = assay: as above
Outline: as §1

LAMA-84 [11] = assay: as above
Outline: as §1

HL-60 [12] = assay: as above
Outline: as §1

MV4-11 [13] = assay: as above
Outline: as §1

MOLM-13 [14] = assay: as above
Outline: as §1

SHI-1 [15] = assay: as above
Outline: as §1

Mono-Mac-6 [16] = tested on: Mono-Mac-6
Outline: (§2)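 For the IC50, dose–response curves were fitted with a log-logistic model. The data came from fifteen myeloid leukaemia cell lines grown in RPMI 1640 at densities in the linear growth range and incubated in 384-well plates for 72 h at 37 °C under 5% CO2. Doses were five tenfold steps from 1 to 10,000 nM in duplicate, and luminescent ATP viability was normalised to vehicle and to a positive control at 10 µM before four-parameter fitting.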

NOMO-1 [17] = tested on: NOMO-1
Outline: as §2

THP-1 [18] = tested on: THP-1
Outline: as §2

ML-2 [19] = tested on: ML-2
Outline: as §2

KCL-22 [20] = tested on: KCL-22
Outline: as §2

BV-173 [21] = tested on: BV-173
Outline: as §2

HEL [22] = tested on: HEL
Outline: as §2

KU-812 [23] = tested on: KU-812
Outline: as §2

K-562 [24] = tested on: K-562
Outline: as §2

KG-1 [25] = tested on: KG-1
Outline: as §2

LAMA-84 [26] = tested on: LAMA-84
Outline: as §2

HL-60 [27] = tested on: HL-60
Outline: as §2

MV4-11 [28] = tested on: MV4-11
Outline: as §2

MOLM-13 [29] = tested on: MOLM-13
Outline: as §2

SHI-1 [30] = tested on: SHI-1
Outline: as §2

CCCCCCCCCCCCCCOc1ccc(C(=O)O)o1 [TOFA]
cell viability [%]
Details	1 nM	10 nM	100 nM	1000 nM	10000 nM
BV-173 [6]	110	104	101	90.1	103
HEL [7]	108	91.8	103	103	83.8
HL-60 [12]	75.1	83.8	108	109	85.4
K-562 [9]	100	93.4	92	108	114
KCL-22 [5]	94.2	90.6	108	107	40.4
KG-1 [10]	95.8	103	116	97.5	93.2
KU-812 [8]	109	95	95.6	81.5	82.5
LAMA-84 [11]	106	105	102	103	90.1
ML-2 [4]	101	92.8	110	101	108
MOLM-13 [14]	102	91.7	98.8	82.7	87
MV4-11 [13]	87.6	87.9	104	98.4	96.2
Mono-Mac-6 [1]	113	94.5	99.8	94.2	105
NOMO-1 [2]	105	101	99.3	99	109
SHI-1 [15]	113	85.6	110	98.9	89.9
THP-1 [3]	98.2	101	97.9	86.4	88.8

Details	IC50 (cell viability) [µM]
BV-173 [21]	> 10
HEL [22]	> 10
HL-60 [27]	> 10
K-562 [24]	> 10
KCL-22 [20]	8.33
KG-1 [25]	> 10
KU-812 [23]	> 10
LAMA-84 [26]	> 10
ML-2 [19]	> 10
MOLM-13 [29]	> 10
MV4-11 [28]	> 10
Mono-Mac-6 [16]	> 10
NOMO-1 [17]	> 10
SHI-1 [30]	> 10
THP-1 [18]	> 10
